Reference: ChEMBL document CHEMBL2385001, “Synthesis and evaluation of 7-chloro-4-(piperazin-1-yl)quinoline-sulfonamide as hybrid antiprotozoal agents” (Bioorg Med Chem, 2013)

Key:
[1] = Cytotoxicity against human HT-29 cells assessed as growth inhibition at 100 uM after 48 hrs by MTT assay relative to control; format: cell-based; settings: read-out: GI
[2] = Cytotoxicity against human HT-29 cells assessed as cell viability at 100 uM after 48 hrs by MTT assay relative to control; format: cell-based; settings: read-out: Activity
[3] = Inhibition of beta-haematin formation after 24 hrs by microtiter plate assay; format: functional
[4] = Hemolytic activity in human RBC at 100 uM after 48 hrs relative to control; format: ADME, cell-based, Erythrocyte; settings: red blood cells, read-out: Activity
Plasmodium falciparum = test: Antimalarial activity against chloroquine-resistant Plasmodium falciparum FCR-3 assessed as growth inhibition after 24 hrs by [3H]-hypoxanthine incorporation assay; format: functional; settings: FCR-3/Gambia
Entamoeba histolytica = test: Antiamoebic activity against trophozoite stage of Entamoeba histolytica HM-1:IMSS assessed as growth inhibition after 72 hrs by microdilution method; format: functional, organism-based
[5] = Safety index, ratio of cytotoxicity against human HT-29 cells to antiamoebic activity against trophozoite stage of Entamoeba histolytica HM-1:IMSS; format: toxicity, cell-based; settings: read-out: Selectivity Index
[6] = Safety index, ratio of cytotoxicity against human HT-29 cells to antimalarial activity against chloroquine-resistant Plasmodium falciparum FCR-3; format: toxicity, cell-based; settings: read-out: Selectivity Index

| Compound | inhibition at 48 h, 100 µM [1] [%] | viability at 48 h, 100 µM [2] [%] | IC50 [3] [µM] | hemolysis at 48 h, 100 µM [4] [%] | IC50 (Plasmodium falciparum) [µM] | IC50 (Entamoeba histolytica) [µM] | selectivity ratio [5] | selectivity ratio [6] |
| --- | --- | --- | --- | --- | --- | --- | --- | --- |
| O=S(=O)(c1ccccc1)N1CCN(c2ccnc3cc(Cl)ccc23)CC1 | 45 | 55.1 | 18.1 | 0.01 | 4.02 | 32.8 | – | – |
| Cc1ccc(S(=O)(=O)N2CCN(c3ccnc4cc(Cl)ccc34)CC2)cc1 | – | 64.5 | 8.92 | 0.62 | 4.22 | 4.54 | 14 | – |
| CS(=O)(=O)N1CCN(c2ccnc3cc(Cl)ccc23)CC1 | – | 73 | 13.5 | 0.01 | 8.54 | > 100 | – | – |
| O=S(=O)(c1ccc(Cl)cc1)N1CCN(c2ccnc3cc(Cl)ccc23)CC1 | – | 61.3 | 34.8 | 1.4 | 3.27 | 25.7 | – | – |
| O=S(=O)(c1cc(Cl)ccc1Cl)N1CCN(c2ccnc3cc(Cl)ccc23)CC1 | – | 63.4 | 47.2 | 2.06 | 2.55 | 30.2 | – | – |
| O=S(=O)(c1ccc2ccccc2c1)N1CCN(c2ccnc3cc(Cl)ccc23)CC1 | – | 59.8 | 71.2 | 0.97 | 3.06 | 23.4 | – | – |
| CC(C)(C)c1ccc(S(=O)(=O)N2CCN(c3ccnc4cc(Cl)ccc34)CC2)cc1 | – | 67.7 | 72.4 | 1.36 | 6.09 | 2.86 | 24 | – |
| COc1ccc(S(=O)(=O)N2CCN(c3ccnc4cc(Cl)ccc34)CC2)cc1 | – | 68.1 | 9.04 | 6.03 | 3.3 | 8.23 | – | – |
| O=[N+]([O-])c1ccccc1S(=O)(=O)N1CCN(c2ccnc3cc(Cl)ccc23)CC1 | 17 | 86.1 | 63.5 | 0.01 | 1.94 | > 100 | – | 44 |
| CCCS(=O)(=O)N1CCN(c2ccnc3cc(Cl)ccc23)CC1 | 17 | 67.1 | 1.79 | 0.82 | 1.72 | > 100 | – | 39 |
| CC(=O)Nc1ccc(S(=O)(=O)N2CCN(c3ccnc4cc(Cl)ccc34)CC2)cc1 | 17 | 96.8 | 8.84 | 0.83 | 1.16 | 9.61 | – | 84 |
| CC[C@@]1(O)C(=O)OCc2c1cc1n(c2=O)Cc2cc3ccccc3nc2-1 [CAMPTOTHECIN] | 52 | 48.3 | – | – | – | – | – | – |
| C=C[C@H]1CN2CC[C@H]1C[C@H]2[C@H](O)c1ccnc2ccc(OC)cc12 [QUININE] | – | – | 22.1 | 2.14 | 0.17 | – | – | – |
